# Patent publication US20250231189A1, “MEASURING FREQUENCY OF PATHOGEN-SPECIFIC T CELLS IN […] AS E[…] TCR-INDUCED CA(2+) SIGNALING” (Thomas Jefferson University, priority 2017, published 2025)
# “Also recorded” adds a separate entry of the source.
# Test system: cloned T cells (68A62)
# Assay: Ca2+ mobilization pattern in individual T cells of a T-cell monolayer (Fluo-4 fluorescence microscopy)
# Type: cell-based, human
# Conditions: for fraction of T cells with slower Ca2+ mobilization (pattern of inefficient T cells) / fraction of cells with rapid/strong and sustained pattern of Ca2+ flux: CTL clone 68A62, strong agonist peptide 10^-4 M IV9, FIG. 4
# From the text: HIV- and Flu-specific human CD8+ T cell clones, termed 68A62 and CER43, were kindly provide by Bruce Walker and Antonio Lanzavecchia, correspondingly. These T cells recognize […] (IV9) and […] (GL9) peptides, respectively, both presented by HLA-A2 MHC class I. 115iX is a CD8+ T cell line developed from CTL D3 as a result of spontaneous mutation in its TCR β chain resulting in loss of specificity for its natural ligand (Anikeeva and Sykulev, unpublished). These were used as T cells with irrelevant specificity. After stimulation with a mixture of allogeneic PBMC and IL2 the cells are typically used in resting stage, 12-17 days after the stimulation as previously described.
# 10^6 cells in 1 ml of PBS were loaded with Fluo-4 (Life Technologies) at 2-4 μM for 30 min at 37° C. in the presence of 0.02% pluoronic acid F-127 and 4 mM Probenecid. The cells were washed free of unreacted reagents and incubated at 37° C. for additional 30 min. The cells were then re-suspended in the assay buffer (Dulbecco's PBS containing 1 mM CaCl2, 2 mM MgCl2, 5 mM glucose, and 0.025% BSA) and used for Ca2+ flux analysis.
# Glass bottom of 96 well MatTec plates was covered with poly-L-Lysine (Sigma, mol wt>300,000) at 0.1 mg/ml for 1 hr at room temperature. After washing with DPBS and add water, TS2/4 non-blocking mAb specific for LFA-1 were added to the plate at concentration 10 μg/ml overnight & 4° C. The wells were washed with DPBS, and 3×10^5 Fluo-4-labeled T cells in 100 μl of the assay buffer were added to each well. The plates were centrifuged for 200 g for one minute and were incubated for 30 min at room temperature prior to the imaging. Suspended cells were removed by gentle washing with assay buffer. The quality of T cell monolayer was assessed using bright field microscopy.
# To identify responding T cells we imaged T-cell monolayers before (background measurement) and after (response) addition of the stimulatory signal such as agonist peptide. The images of T-cell monolayers were taken at various exposure times using 10× or 20× objectives. Instead of averaging the entire set of stimulatory signal against an agonist peptide, we identified sets of cells, having different response rates and then averaged these, now separated sets of cells. This is in direct contrast to the general averaging strategy provided in PCT/US2016/039313. In some experiments Ca2+ response was also initiated by ionomycin at 10 μg/ml to optimize exposure time (data not shown). The average intensity of images prior and after the T-cell stimulation at various time points and the numbers of individual responding cells per imaging field were determined by MetaMorph software.
# Glass bottom of 96-well plates was covered with poly-L-Lysine to capture TS2/4 antibody recognizing LFA-1 adhesion receptor without blocking LFA-1 functional activity. Cloned CD8 T cells with known specificity or polyclonal CD8 T cells were labeled with Ca2+ fluorophore Fluor-4 and added to the wells. The quality of the T-cell monolayers was evident from analysis of bright field images of the immobilized T cells on the glass bottom of the plate. This method allows T cells to form a continuous monolayer allowing the T cells to contact each other, which is necessary for presentation and recognition of pMHC on one T cell by another T cell.
# The immobilized cells, after they are provided with stimulation of a peptide, can be imaged. Accordingly, we can take a first image, to identify the background image of each individual cell, before and after the stimulation. Accordingly, we can look at the calcium concentration of each individual cell across time. By looking at each cell, we can then determine and add them to one of three boxes for responding cells, and then a fourth type of cell that is either non-responsive or there is calcium flux that happens with or without stimulation-this typically results in a sharp peak of intensity that quickly diminishes.
# [1] = listed as strong agonist ligand
sequence,measurement,setting,value
"ILKEPVHGV [IV9, peptide from HIV reverse transcriptase, presented by HLA-A2, recognized by CTL clone 68A62]",pattern of Ca2+ response of majority of T cells,"CD8 CTL 68A62, 10^-4 M IV9 peptide, FIG. 4",rapid and sustaine
same,fraction of T cells with slower Ca2+ mobilization (pattern of inefficient T cells),,20%
same,fraction of cells with rapid/strong and sustained pattern of Ca2+ flux,,about 90%
same,fraction of T cells with slower Ca2+ mobilization (pattern of inefficient T cells),[1],less than 20%
same,fraction of cells with rapid/strong and sustained pattern of Ca2+ flux,[1],More than 80%
same,pattern of Ca2+ response of majority of T cells,"CTL clone 68A62, suboptimal (much lower) concentration of the strong agonist peptide, FIG. 6","rapid and oscillating pattern of Ca2+ mobilization; also recorded: quick, but oscillating"
same,pattern of Ca2+ response of majority of T cells,"CTL clone 68A62, suboptimal (much lower) concentration of the strong agonist peptide, FIG. 6, listed as strong agonist pMHC ligand",slow oscillating kinetics of Ca2+ mobilization
